System: SR, CFTR, Cl−/HCO3− AE2, VEGF-A/C
Experiment: Expression of PCNA, SR, CFTR, Cl−/HCO3− AE2, VEGF-A/C in liver sections, liver tissue and cholangiocytes of Morpholino-treated rats
Format: in vivo, rat
Settings: normal rats, 1 week
Description: In separate experiments, normal rats treated with Vivo-Morpholino sequences of AANAT (5′-[…] (SEQ ID NO:1), to reduce the biliary expression of AANAT) or Morpholino mismatched (5′-[…] (SEQ ID NO:2)) (Gene Tools LCC) (1 mg/Kg BW/day) for 1 week via an implanted portal vein catheter. Serum, liver tissue, cholangiocytes, kidney, spleen, small intestine, stomach and heart were collected. Since our goal was to knock-down AANAT expression in the liver without inhibiting AANAT expression in other organs, we used a lower dose (1 mg/Kg/day) of Vivo-Morpholino than that described in the original study (3.0 mg/kg/day (Arora et al., 2002). This approach minimizes the amount of Vivo-Morpholino that circulates outside of the liver after slow infusion into the portal vein. See below for the surgical procedure for the implantation of the portal vein catheter by which AANAT Vivo-Morpholino or Morpholino mismatched was administered.
By real-time PCR (Francis et al., 2008), the expression of PCNA, SR, CFTR, Cl^−/HCO3^− AE2, VEGF-A/C was evaluated in total RNA from: (i) cholangiocytes from normal rats, and BDL rats treated with melatonin; and (ii) liver tissue and cholangiocytes from rats treated with mismatch or AANAT Vivo-Morpholino for 1 week. A ΔΔCT analysis was obtained using normal cholangiocytes or normal total liver as control samples (Francis et al., 2008). The primers for rat PCNA, SR, CFTR, Cl^−/HCO3^− AE2, VEGF-A/C (SABiosciences) were designed according to the NCBI GenBank Accession numbers: NM_022381 (PCNA); NM_031115 (SR); NM_017048 (Cl^−/HCO3^− AE2); XM_001059206 (CFTR); NM_031836 (VEGF-A); and NM_053653 (VEGF-C). The percentage of cholangiocytes positive for SR, CFTR, Cl^−/HCO3^− AE2 and VEGF-A/C was evaluated in liver sections: when 0%-5% of bile ducts were positive a negative score was assigned; a +/−score was assigned when 6%-10% of ducts were positive; a +score was assigned when 11%-30% of bile ducts were positive (Glaser et al., 2009).

## AANAT Vivo-Morpholino: Vivo-Morpholino sequence of AANAT 5′-GTTCCCCAGCTTTGGAAGTGGTCCC (SEQ ID NO:1), to reduce the biliary expression of AANAT (all phosphorodiamidate morpholino (PMO); Vivo-Morpholino delivery moiety attached, position not given here, further chemistry not fully specified)
  Immunoreactivity of cholangiocytes to CFTR: + (a +score was assigned when 11%-30% of bile ducts were positive)
  Immunoreactivity of cholangiocytes to Cl−HCO3− AE2: + (a +score was assigned when 11%-30% of bile ducts were positive)
  Immunoreactivity of cholangiocytes to SR: + (a +score was assigned when 11%-30% of bile ducts were positive)
  Immunoreactivity of cholangiocytes to VEGF-A: + (a +score was assigned when 11%-30% of bile ducts were positive)
  Immunoreactivity of cholangiocytes to VEGF-C: + (a +score was assigned when 11%-30% of bile ducts were positive)

— patent US9468670B2, “Melatonin-based treatment and diagnosis of bile duct disease” (Texas A&M University System, priority 2011, dated 2016)
